These molecules were tested on TNF-α production in LPS-stimulated human whole blood (assay: Inhibition of TNF-α production from human whole blood (hWBA)). Conditions: Homo sapiens, IC50 for TNF-α production, LPS-stimulated human whole blood; read-out: hWBA.
Type: cell-based
With `COc1ccc2c(c1)C(=O)N(C[C@@]1(C#Cc3cncc(C(=O)NN)c3)NC(=O)NC1=O)C2` [Compound 2255] the IC50 was 432 nM.
Work on `COc1ccc2c(c1)C(=O)N(CC1(C#Cc3cccnc3N3CCN(C)CC3)NC(=O)NC1=O)C2` (stereo not drawn) [Compound 2285] yielded an IC50 of 1230 nM.
With `COc1ccc2c(c1)C(=O)N(C[C@@]1(C#Cc3cccnc3N3CCOCC3)NC(=O)NC1=O)C2` [Compound 2287] the IC50 was 633 nM.
In the case of `COc1ccc2c(c1)C(=O)N(C[C@@]1(C#Cc3cccnc3-c3cn[nH]c3)NC(=O)NC1=O)C2` [Compound 2266], the IC50 is reported as 927 nM.
In the case of `COc1ccc2c(c1)C(=O)N(C[C@@]1(C#Cc3cccc(C(=NO)N4CCOCC4)c3)NC(=O)NC1=O)C2` [Compound 916], the IC50 is reported as 274 nM.
Work on `COc1ccc2c(c1)C(=O)N(C[C@]1(C#Cc3ccc(C(=O)NS(C)(=O)=O)nc3)NC(=O)NC1=O)C2` [Compound 901] yielded an IC50 of 1000 nM.
`COc1ccc2c(c1)C(=O)N(C[C@]1(C#Cc3cncc(C(=O)NN)c3)NC(=O)NC1=O)C2` [Compound 2256] showed an IC50 of 1000 nM.
For `COc1ccc2c(c1)C(=O)N(C[C@@]1(C#Cc3ccc(C(=NO)N4CCN(c5ccccc5)CC4)cc3)NC(=O)NC1=O)C2` [Compound 928], the IC50 was 278 nM.
In the case of `COc1ccc2c(c1)C(=O)N(C[C@@]1(C#Cc3ccc(C(=NO)N4CCCCC4)cc3)NC(=O)NC1=O)C2` [Compound 946], the IC50 is reported as 154 nM.

Same assay, conditions: Homo sapiens, IC50 for inhibition of TNF-α production, LPS-stimulated human whole blood; read-out: hWBA
`COc1ccc2c(c1)C(=O)N(C[C@@]1(C#Cc3ccccc3C=O)NC(=O)NC1=O)C2` [Compound 1918] gave an IC50 of 936 nM.
In the case of `COc1ccc2c(c1)C(=O)N(C[C@@]1(C#Cc3cccc(N4CCSCC4)n3)NC(=O)NC1=O)C2` [Compound 997], the IC50 is reported as 4320 nM.
`COc1ccc2c(c1)C(=O)N(C[C@@]1(C#Cc3cncc(-c4cc[nH]n4)c3)NC(=O)NC1=O)C2` [Compound 2234] gave an IC50 of 678 nM.
For `COc1ccc2c(c1)C(=O)N(C[C@@]1(C#Cc3cnc(N)nc3N)NC(=O)NC1=O)C2` [Compound 2209], the IC50 was 1600 nM.
With `COc1ccc2c(c1)C(=O)N(C[C@@]1(C#Cc3ccc(CCNC(=O)C(F)(F)F)s3)NC(=O)NC1=O)C2` [Compound 2221] the IC50 was 930 nM.
For `COc1ccc2c(c1)C(=O)N(CC1(C#Cc3cccc4c3CCC43NC(=O)NC3=O)NC(=O)NC1=O)C2` (stereo not drawn) [Compound 1318], the IC50 was > 1000 nM.
`COc1ccc2c(c1F)C(=O)N(C[C@@]1(C#Cc3ccc(CN4CCN(c5ccncc5)CC4)cc3)NC(=O)NC1=O)C2` [Compound 981] gave an IC50 of 290 nM.
With `COc1ccc2c(c1F)C(=O)N(C[C@@]1(C#Cc3ccc(-c4nc(-c5cccnc5)ccc4O)cc3)NC(=O)NC1=O)C2` [Compound 1001] the IC50 was 106 nM.
In the case of `COc1ccc2c(c1F)C(=O)N(C[C@@]1(C#Cc3ccc(C(CN)N4CCC(NC(=O)OC(C)(C)C)C4)cc3)NC(=O)NC1=O)C2` (stereo partly drawn) [Compound 1702], the IC50 is reported as 303 nM.
`COc1ccc2c(c1)C(=O)N(C[C@@]1(C#Cc3ccc(-n4ccnc4)cc3)NC(=O)NC1=O)C2` [Compound 1160] was tested, and the IC50 was 786 nM.
With `COc1ccc2c(c1)C(=O)N(C[C@@]1(C#Cc3ccc(NC(=O)C4CCN(C)CC4)cc3)NC(=O)NC1=O)C2` [Compound 1909] the IC50 was 78 nM.

Same assay, conditions: Homo sapiens, read-out: hWBA (nM)
In the case of `COc1ccc2c(c1F)C(=O)N(C[C@@]1(C#Cc3ccc(C4(C#N)CCN(C)CC4)cc3)NC(=O)NC1=O)C2` [Compound 1313], the IC50 is reported as 669 nM.

Same assay, conditions: IC50 for TNF-α production, LPS-stimulated human whole blood; read-out: hWBA
Molecule `COc1ccc2c(c1)CCN(C[C@@]1(C#Cc3ccc(C(=NO)N4CCOCC4)cc3)NC(=O)NC1=O)C2=O` [Compound 2319] has an IC50 of 1060 nM.
In the case of `COc1ccc2c(c1)C(=O)N(C[C@]1(C#Cc3ccc(C(=O)O)s3)NC(=O)NC1=O)C2` [Compound 905], the IC50 is reported as 10000 nM.
Work on `CCN1CCN(C(=NO)c2ccc(C#C[C@]3(CN4CCc5cc(OC)ccc5C4=O)NC(=O)NC3=O)cc2)CC1` [Compound 2316] yielded an IC50 of 335 nM.
With `COc1ccc2c(c1)C(=O)N(C[C@@]1(C#Cc3csc(C4(C)NC(=O)NC4=O)c3)NC(=O)NC1=O)C2` (stereo partly drawn) [Compound 908] the IC50 was 531 nM.
For `COC(=O)C(c1ccc(C#C[C@]2(CN3Cc4ccc(OC)cc4C3=O)NC(=O)NC2=O)cc1)N1CCCNCC1` (stereo partly drawn) [Compound 2271], the IC50 was 566 nM.
With `COc1ccc2c(c1)C(=O)N(C[C@@]1(C#Cc3ccc(C(=NO)N4CCSCC4)cc3)NC(=O)NC1=O)C2` [Compound 912] the IC50 was 153 nM.
`COc1ccc2c(c1)C(=O)N(C[C@@]1(C#Cc3ccc(C4(C(N)=O)CC4)cc3)NC(=O)NC1=O)C2` [Compound 2260] showed an IC50 of 227 nM.
`COc1ccc2c(c1)CCN(C[C@@]1(C#Cc3ccc4c(c3)CCCC43NC(=O)NC3=O)NC(=O)NC1=O)C2=O` (stereo partly drawn) [Compound 2321] showed an IC50 of 1100 nM.
Work on `COc1ccc2c(c1)C(=O)N(C[C@@]1(C#Cc3cncc(-c4noc(C(N)=O)n4)c3)NC(=O)NC1=O)C2` [Compound 2254] yielded an IC50 of 713 nM.
`COc1ccc2c(c1)C(=O)N(C[C@]1(C#Cc3cnc(N)c(C(=O)O)c3)NC(=O)NC1=O)C2` [Compound 903] showed an IC50 of 1000 nM.
With `COc1ccc2c(c1)C(=O)N(C[C@@]1(C#Cc3ccc(C(=NO)N4CCN(C5CC5)CC4)cc3)NC(=O)NC1=O)C2` [Compound 922] the IC50 was 92 nM.

Same assay, conditions: IC50 for inhibition of TNF-α production, LPS-stimulated human whole blood
For `COc1ccc2c(c1)C(=O)N(C[C@@]1(C#Cc3ccc(-c4cccc(Cl)c4O)nc3)NC(=O)NC1=O)C2` [Compound 1315], the “hWBA (nM)” value was “Inactive”.

Same assay, conditions: IC50 for inhibition of TNF-α production, LPS-stimulated human whole blood; read-out: hWBA
`COc1ccc2c(c1)C(=O)N(C[C@@]1(C#Cc3ccc(N4C(=O)CCC4C(=O)N4CCN(C)CC4)cc3)NC(=O)NC1=O)C2` (stereo partly drawn) [Compound 1905] showed an IC50 of 416 nM.
`COc1ccc2c(c1)C(=O)N(C[C@@]1(C#Cc3ccc(C(CN)N4CCC(NC(=O)OC(C)(C)C)C4)cc3)NC(=O)NC1=O)C2` (stereo partly drawn) [Compound 1703] gave an IC50 of 316 nM.
In the case of `COc1ccc2c(c1)C(=O)N(C[C@@]1(C#Cc3ccc(N4CCC(=O)CC4)nc3)NC(=O)NC1=O)C2` [Compound 2211], the IC50 is reported as 1000 nM.
In the case of `CCN1CCN(c2ccc(OC)c(-c3ccc(C#C[C@]4(CN5Cc6ccc(OC)cc6C5=O)NC(=O)NC4=O)cc3)n2)CC1` [Compound 972], the IC50 is reported as 573 nM.
`COc1ccc2c(c1F)C(=O)N(C[C@@]1(C#Cc3cncc(NC(=O)C4CCN(C)CC4)c3)NC(=O)NC1=O)C2` [Compound 1907] was tested, and the IC50 was 86 nM.
Work on `COc1ccc2c(c1F)C(=O)N(C[C@@]1(C#Cc3ccc(CN4CCOCC4)nc3)NC(=O)NC1=O)C2` [Compound 965] yielded an IC50 of 698 nM.
In the case of `CCN1CCN(C(=O)C2CCC(=O)N2c2ccc(C#C[C@]3(CN4Cc5ccc(OC)cc5C4=O)NC(=O)NC3=O)cc2)CC1` (stereo partly drawn) [Compound 1901], the IC50 is reported as 113 nM.
Work on `COc1ccc2c(c1)C(=O)N(C[C@@]1(C#Cc3ccc(Nc4c(N)c(=O)c4=O)cc3)NC(=O)NC1=O)C2` [Compound 1308] yielded an IC50 of 306 nM.
`COc1ccc2c(c1F)C(=O)N(C[C@@]1(C#Cc3ccc4c(=O)[nH][nH]c4c3)NC(=O)NC1=O)C2` [Compound 301] gave an IC50 of 226 nM.
In the case of `COc1ccc2c(c1F)C(=O)N(C[C@@]1(C#Cc3ccc4c(c3)CN(C)C(=O)N4)NC(=O)NC1=O)C2` [Compound 307], the IC50 is reported as 281 nM.
`COc1ccc2c(c1F)C(=O)N(C[C@@]1(C#Cc3ccc(CN4CCSCC4)nc3)NC(=O)NC1=O)C2` [Compound 966] was tested, and the IC50 was 588 nM.
`COc1ccc2c(c1)C(=O)N(C[C@@]1(C#Cc3cnc4nc(O)oc4c3)NC(=O)NC1=O)C2` [Compound 2244] was tested, and the IC50 was 574 nM.
`COc1ccc2c(c1)C(=O)N(C[C@@]1(C#Cc3ccc(-c4cnccc4C)nc3)NC(=O)NC1=O)C2` [Compound 1100] was tested, and the IC50 was 2390 nM.
For `COc1ccc2c(c1F)C(=O)N(C[C@@]1(C#Cc3ccc(CN4CCc5ccc(F)cc5C4)nc3)NC(=O)NC1=O)C2` [Compound 968], the IC50 was 4980 nM.
For `COc1ccc2c(c1F)C(=O)N(C[C@@]1(C#Cc3ccc(-c4nc(-c5cnn(C)c5)ccc4O)cc3)NC(=O)NC1=O)C2` [Compound 986], the IC50 was 87 nM.
For `COc1ccc2c(c1)C(=O)N(C[C@@]1(C#Cc3nc(N4CC[C@H](O)C4=O)ccc3OC)NC(=O)NC1=O)C2` [Compound 1504], the IC50 was 3590 nM.
`CCN1CCN(C(C)c2ccc(C#C[C@]3(CN4Cc5ccc(OC)c(F)c5C4=O)NC(=O)NC3=O)cc2)CC1` (stereo partly drawn) [Compound 984] showed an IC50 of 695 nM.
In the case of `COc1ccc2c(c1)C(=O)N(C[C@@]1(C#Cc3nc(-c4n[nH]c(=O)n4C4CCN(C)CC4)ccc3OC)NC(=O)NC1=O)C2` [Compound 1900], the IC50 is reported as 2190 nM.
`COc1ccc2c(c1)C(=O)N(C[C@@]1(C#Cc3ccc(C4(CN5Cc6cc(O)ccc6C5=O)NC(=O)NC4=O)cc3)NC(=O)NC1=O)C2` (stereo partly drawn) [Compound 2216] showed an IC50 of 419 nM.
`COc1ccc2c(c1F)C(=O)N(C[C@@]1(C#Cc3ccc(-c4nc(-c5cnn(C)c5)ccc4OC(=O)C(C)(C)C)c(F)c3)NC(=O)NC1=O)C2` [Compound 1006] showed an IC50 of 68.5 nM.
`COc1ccc2c(c1)C(=O)N(C[C@@]1(C#Cc3ccc4[nH]nc(N)c4c3)NC(=O)NC1=O)C2` [Compound 2237] showed an IC50 of 520 nM.
Work on `COc1ccc2c(c1)C(=O)N(C[C@@]1(C#Cc3nc(N)ccc3O)NC(=O)NC1=O)C2` [Compound 1921] yielded an IC50 of 808 nM.
`COc1ccc2c(c1)C(=O)N(C[C@@]1(C#Cc3ccc(C4(CNS(C)(=O)=O)NC(=O)NC4=O)cc3)NC(=O)NC1=O)C2` (stereo partly drawn) [Compound 1110] was tested, and the IC50 was 176 nM.
Molecule `COc1ccc2c(c1)C(=O)N(C[C@@]1(C#Cc3ccc(-c4cc(N)[nH]n4)cc3)NC(=O)NC1=O)C2` [Compound 747] has an IC50 of 128 nM.
For `COc1ccc2c(c1)C(=O)N(C[C@@]1(C#Cc3ccc(-n4c(C)n[nH]c4=O)cc3)NC(=O)NC1=O)C2` [Compound 1915], the IC50 was 243 nM.
`COc1ccc2c(c1)C(=O)N(C[C@@]1(C#Cc3ccc([C@@]4(CN5Cc6ccc(OC)cc6C5=O)NC(=O)NC4=O)cc3)NC(=O)NC1=O)C2` [Compound 2217] was tested, and the IC50 was 849 nM.
`COc1ccc2c(c1F)C(=O)N(C[C@@]1(C#Cc3ccc(C(CN)N4CCC(N)C4)cc3)NC(=O)NC1=O)C2` (stereo partly drawn) [Compound 1704] was tested, and the IC50 was 109 nM.
`CCN1CCN(C(=O)C2CCC(=O)N2c2ccc(OC)c(C#C[C@]3(CN4Cc5ccc(OC)cc5C4=O)NC(=O)NC3=O)n2)CC1` (stereo partly drawn) [Compound 1917] showed an IC50 of 3360 nM.
`COc1ccc2c(c1F)C(=O)N(C[C@@]1(C#Cc3ccc(N4C(=O)NC5(CC5)C4=O)c(F)c3)NC(=O)NC1=O)C2` [Compound 1317] gave an IC50 of 148 nM.
`CCN1CCN(C(=O)c2ccc(C#C[C@]3(CN4Cc5ccc(OC)c(F)c5C4=O)NC(=O)NC3=O)cc2)CC1` [Compound 964] gave an IC50 of 308 nM.
